From patent US10780090B2, “Heteroaryl compounds useful as inhibitors of SUMO activating enzyme” (Millennium Pharmaceuticals, Inc., priority 2014, dated 2020)

Target: recombinant human SAE enzyme (Homo sapiens (Human), UniProt Q9UBT2)
Experiment: SAE HTRF enzyme assay
Format: biochemical
Conditions: for inhibition at 0.111 µM / Percent Inhibition: Concentration 0.111 μM; for inhibition at 0.111 µM: read-out: Percent Inhibition; for IC50: class symbols A/B/C
Outline: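 Enzyme reaction: 50 mM HEPES pH 7.5, 5 mM MgCl2, 250 μM GSH, 0.05% BSA, 0.5 μM ATP, 0.01 μM Ubc9-GST, 0.125 μM Sumo-Flag, 0.11 nM SAE; 105 min, 24° C. Stop/detect, 2 h, then HTRF. % inh or IC50.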

Sequence of recombinant human SAE enzyme (Q9UBT2 whole entry): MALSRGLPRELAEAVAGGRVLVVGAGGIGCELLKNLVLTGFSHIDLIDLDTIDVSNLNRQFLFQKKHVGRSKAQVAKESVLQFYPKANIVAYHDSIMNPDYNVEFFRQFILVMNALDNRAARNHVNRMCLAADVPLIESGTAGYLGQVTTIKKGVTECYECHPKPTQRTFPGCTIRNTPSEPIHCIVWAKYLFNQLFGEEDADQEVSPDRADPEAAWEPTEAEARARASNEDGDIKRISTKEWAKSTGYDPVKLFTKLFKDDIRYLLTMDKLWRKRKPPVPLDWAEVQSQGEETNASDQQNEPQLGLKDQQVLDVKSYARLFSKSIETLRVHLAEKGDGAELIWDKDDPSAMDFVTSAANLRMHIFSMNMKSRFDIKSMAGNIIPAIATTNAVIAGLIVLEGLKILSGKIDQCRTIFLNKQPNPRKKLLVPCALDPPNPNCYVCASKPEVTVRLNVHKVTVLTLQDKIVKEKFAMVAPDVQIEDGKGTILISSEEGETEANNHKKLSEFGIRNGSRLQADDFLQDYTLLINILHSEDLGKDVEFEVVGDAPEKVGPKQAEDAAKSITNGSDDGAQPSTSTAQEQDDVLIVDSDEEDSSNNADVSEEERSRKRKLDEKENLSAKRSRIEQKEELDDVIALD
Sequence of recombinant human SAE enzyme (Q9UBE0 whole entry partner): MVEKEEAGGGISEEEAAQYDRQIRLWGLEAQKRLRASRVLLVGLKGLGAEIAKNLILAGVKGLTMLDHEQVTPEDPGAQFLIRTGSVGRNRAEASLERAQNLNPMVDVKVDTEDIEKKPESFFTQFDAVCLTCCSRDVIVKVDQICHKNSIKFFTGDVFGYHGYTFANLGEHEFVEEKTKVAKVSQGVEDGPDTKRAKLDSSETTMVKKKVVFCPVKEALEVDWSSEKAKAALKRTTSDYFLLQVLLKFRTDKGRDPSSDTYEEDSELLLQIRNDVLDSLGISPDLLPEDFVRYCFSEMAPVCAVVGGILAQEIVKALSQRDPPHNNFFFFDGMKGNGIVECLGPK

| SMILES | inhibition at 0.111 µM | IC50 | Percent Inhibition |
| --- | --- | --- | --- |
| NS(=O)(=O)OC[C@H]1C[C@@H](Nc2ncncc2C(=O)c2cc(Cc3cccc(F)c3)cs2)C[C@@H]1O [I-97, {(1R,2S,4R)-4-[(5-{[4-(3-fluorobenzyl)-2-thienyl]carbonyl}pyrimidin-4-yl)amino]-2-hydroxycyclopentyl}methyl sulfamate] | 97% | – | – |
| Cc1sc(C(=O)c2cncnc2N[C@@H]2C[C@H](COS(N)(=O)=O)[C@@H](O)C2)cc1S(=O)(=O)c1cccc(Cl)c1 [I-181, [(1R,2S,4R)-4-{[5-({4-[(3-chlorophenyl)sulfonyl]-5-methyl-2-thienyl}carbonyl)pyrimidin-4-yl]amino}-2-hydroxycyclopentyl]methyl sulfamate] | 82% | 10 to 100 nM | – |
| NS(=O)(=O)OC[C@H]1C[C@@H](Nc2ncncc2C(=O)c2cc([S@+]([O-])c3cccc(C(F)(F)F)c3)c(Cl)s2)C[C@@H]1O (mixture of isomers) [I-122, [(1R,2S,4R)-4-({5-[(5-chloro-4-{(R)-[3-(trifluoromethyl)phenyl]sulfinyl}-2-thienyl)carbonyl]pyrimidin-4-yl}amino)-2-hydroxycyclopentyl]methyl sulfamate and [(1R,2S,4R)-4-({5-[(5-chloro-4-{(S)-[3-(trifluoromethyl)phenyl]sulfinyl}-2-thienyl)carbonyl]pyrimidin-4-yl}amino)-2-hydroxycyclopentyl]methyl sulfamate] | – | < 10 nM | 98 |
| C[C@@H](c1cccc(Cl)c1)c1csc(C(=O)c2cncnc2N[C@@H]2C[C@H](COS(N)(=O)=O)[C@@H](O)C2)c1 (mixture of isomers) [I-117, [(1R,2S,4R)-4-{[5-({4-[(1S)-1-(3-chlorophenyl)ethyl]-2-thienyl}carbonyl)pyrimidin-4-yl]amino}-2-hydroxycyclopentyl]methyl sulfamate and [(1R,2S,4R)-4-{[5-({4-[(1R)-1-(3-chlorophenyl)ethyl]-2-thienyl}carbonyl)pyrimidin-4-yl]amino}-2-hydroxycyclopentyl]methyl sulfamate] | – | < 10 nM | 93 |
| Cc1sc(C(=O)c2cncnc2N[C@@H]2C[C@H](COS(N)(=O)=O)[C@@H](O)C2)cc1[C@@H]1OCCc2sccc21 (mixture of isomers) [I-275, [(1R,2S,4R)-4-{[5-({4-[(4S)-6,7-dihydro-4H-thieno[3,2-c]pyran-4-yl]-5-methyl-2-thienyl}carbonyl)pyrimidin-4-yl]amino}-2-hydroxycyclopentyl]methyl sulfamate and [(1R,2S,4R)-4-{[5-({4-[(4R)-6,7-dihydro-4H-thieno[3,2-c]pyran-4-yl]-5-methyl-2-thienyl}carbonyl)pyrimidin-4-yl]amino}-2-hydroxycyclopentyl]methyl sulfamate] | – | < 10 nM | 97 |
| NC(c1cccc(Cl)n1)c1cc(C(=O)c2cncnc2NC2CC(O)C(COS(N)(=O)=O)C2)sc1Cl (mixture of isomers) [I-25, [(1R,2S,4R)-4-{[5-({4-[(S)-amino(6-chloropyridin-2-yl)methyl]-5-chloro-2-thienyl}carbonyl)pyrimidin-4-yl]amino}-2-hydroxycyclopentyl]methyl sulfamate and [(1R,2S,4R)-4-{[5-({4-[(R)-amino(6-chloropyridin-2-yl)methyl]-5-chloro-2-thienyl}carbonyl)pyrimidin-4-yl]amino}-2-hydroxycyclopentyl]methyl sulfamate] | – | < 10 nM | 98 |
